Reference: patent US20130274284A1 (DR. REDDY'S LABORATORIES, INC., priority 2010, published 2013)

Test: storage stability with respect to degradation impurities (OXTP impurity)
Assay type: physicochemical
Details: for stability with respect to impurities such as OXTP impurity: stored in presence of desiccant

Row | degradation during storage leading to impurities such as OXTP impurity (during the storage) | stability with respect to impurities such as OXTP impurity | SMILES
1 | degrades during the storage | greater stability | CC(=O)Oc1cc2c(s1)CCN(C(C(=O)C1CC1)c1ccccc1F)C2 (stereo not drawn) [prasugrel, 5-(2-cyclopropyl-1-(2-fluorophenyl)-2-oxoethyl)-4,5,6,7-tetrahydrothieno[3,2-c]pyridin-2-yl acetate]
2 |  | greater stability | CC(=O)Oc1cc2c(s1)CCN(C(C(=O)C1CC1)c1ccccc1F)C2.Cl (racemic) [prasugrel hydrochloride, 5-[(1RS)-2-cyclopropyl-1-(2-fluorophenyl)-2-oxoethyl]-4,5,6,7-tetrahydrothieno[3,2-c]pyridin-2-yl acetate hydrochloride]
